Source: patent US12258344B2, “Azaaromatic amide derivatives for the treatment of cancer” (SHENZHEN FORWARD PHARMACEUTICALS CO., LTD., priority 2019, dated 2025)

What was measured:
BaF3 (EGFR/V774insHV) = BaF3 (EGFR/V774insHV) (Homo sapiens, UniProt P00533, cells depend on it, form not given); assay: Test 18: EGFR exon 20 inserted V774insHV cell proliferation test; assay type: cell-based; conditions: 72 hours, Cell Titer-Glo, read-out: Test 18 IC50
Description: (§1) The number of viable cells in the culture was measured according to the protocol described in Promega's Cell Titer-Glo Luminescent cell Viability Assay (Promega catalog number #G7570). 90 μl of cells (3,000 cells/well) were cultured in growth medium in a Corning black transparent bottom 96-well plate, and cultured in a 5% CO2 humidified incubator at 37° C. overnight. The compound serially diluted in 100% DMSO was added to the cells using a pipette, and the cells were incubated for another 72 hours. 100 μl of the mixed Cell Titer-Glo reagent was added to the cells in the 96-well culture plate to lyse the cells and mix gently. Subsequently, the […] was detected on the Envision microplate detector to obtain the data of each compound. Finally, the data was input into a suitable software package (such as Prism) for curve fitting analysis.

BaF3 (HER2/A775insYVMA) = target: T1, BaF3 (HER2/A775insYVMA) (Homo sapiens, UniProt P04626, cells depend on it, form not given); assay: Test 21: HER2 exon 20 inserted A775insYVMA cell proliferation test; assay type: cell-based; conditions: BaF3 (HER2/A775insYVMA), 72 hours, Cell Titer-Glo; read-out: test 21 IC50
T1 construct: other: BaF3 (HER2/A775insYVMA), 72 hours, Cell Titer-Glo
Description: Test 21: HER2 Exon 20 Inserted A775insYVMA Cell Proliferation Test
as §1

BaF3 (EGFR/N771insH) [1] = target: T2, BaF3 (EGFR/N771insH) (Homo sapiens, UniProt P00533, cells depend on it, form not given); assay: Test 16: EGFR exon 20 inserted N771insH cell proliferation test; assay type: cell-based; conditions: BaF3 (EGFR/N771insH), 72 hours, Cell Titer-Glo; read-out: Test 16 IC50
T2 construct: Test 16 IC50 (nM); other: BaF3 (EGFR/N771insH), 72 hours, Cell Titer-Glo

BaF3 (EGFR/N771insH) [2] = target: T3, BaF3 (EGFR/N771insH) (Homo sapiens, UniProt P00533, cells depend on it, form not given); assay: as above; assay type: cell-based; conditions: N771insH, D770insNPG, V774insHV (tests 16-18), in words
T3 construct: other: N771insH, D770insNPG

BaF3 (EGFR/S768I) [3] = target: T4, BaF3 (EGFR/S768I) (Homo sapiens, UniProt P00533, cells depend on it, form not given); assay: Test 19: EGFR/S768I mutant cell line proliferation test; assay type: cell-based; conditions: BaF3 (EGFR/S768I), 72 hours, Cell Titer-Glo; read-out: Test 19 IC50
T4 construct: other: BaF3 (EGFR/S768I), 72 hours, Cell Titer-Glo
Description: (§2) Test 19: EGFR/S768I Mutant Cell Line Proliferation Test
as §1

BaF3 (EGFR/S768I) [4] = target: T5, BaF3 (EGFR/S768I) (Homo sapiens, UniProt P00533, cells depend on it, form not given); assay: as above; assay type: cell-based; conditions: EGFR S768I and EGFR L861Q (tests 19-20), in words
T5 construct: other: EGFR S768I and EGFR L8
Description: as §2, §1

HER4 kinase = target: T6, HER4 kinase (Homo sapiens, UniProt Q15303); assay: Test 24: HER4 kinase inhibition test; assay type: biochemical
T6 construct: made in house
Description: Test 24: HER4 Kinase Inhibition Test
Next, 100% DMSO was used to formulate the test compound into a solution of 50× at the final test concentration, and then sequentially diluted to 10 test concentrations; 100 μL of 100% DMSO was added to the blank control well as a negative control group without the compound and kinase. […] Finally, 10 μL of 2.5× peptide solution was added to the 384-well plate. After incubating at 25° C. for 10 minutes, 25 μL of reaction stop solution was added. Finally, the absorbance was detected on the Envision microplate detector to obtain the data of each compound. Finally, the data was input into a suitable software package (such as Prism) for curve fitting analysis.

BaF3 (EGFR/V769insASV) = BaF3 (EGFR/V769insASV) (Homo sapiens, UniProt P00533, DUP767-769, cells depend on it); assay: Test 15: EGFR exon 20 inserted V769insASV cell proliferation test; assay type: cell-based; conditions: 72 hours, Cell Titer-Glo, read-out: Test 15 IC50
Procedure, shortened: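 BaF3 cells expressing EGFR V769insASV (3000 cells/well) plated overnight, then exposed to DMSO-diluted compound series for 72 h at 37 °C, 5% CO2. Viability by CellTiter-Glo luminescence; values from curve fitting.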

BaF3 (EGFR/L861Q) = BaF3 (EGFR/L861Q) (Homo sapiens, UniProt P00533, cells depend on it, form not given); assay: Test 20: EGFR/L861Q mutant cell line proliferation test; assay type: cell-based; conditions: 72 hours, Cell Titer-Glo, read-out: Test 20 IC50
Description: as §1, with “The compound serially diluted in 100% DMSO was added to the cells using a pipette, and the cells were incubated for another 72 hours.” left out

BaF3 (EGFR/D770insSVD) [5] = target: T7, BaF3 (EGFR/D770insSVD) (Homo sapiens, UniProt P00533, cells depend on it, form not given); assay: Test 13: EGFR exon 20 inserted D770insSVD cell proliferation test; assay type: cell-based; conditions: A763insFQEA, V769insASV, D770insSVD (tests 13-15), in words
T7 construct: other: A763insFQEA, V769ins
Procedure, shortened: (§3)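 BaF3 cells expressing EGFR D770insSVD, 3,000 cells/well, seeded overnight at 37° C, 5% CO2, then exposed to serially diluted compound for 72 h. Viable cells read by CellTiter-Glo luminescence; values from curve fitting.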

BaF3 (EGFR/D770insSVD) [6] = target: T8, BaF3 (EGFR/D770insSVD) (Homo sapiens, UniProt P00533, DUP768-770, cells depend on it); assay: as above; assay type: cell-based; conditions: BaF3 (EGFR/D770insSVD), 72 hours, Cell Titer-Glo; read-out: Test 13 IC50
T8 construct: Test 13 IC50 (nM); other: BaF3 (EGFR/D770insSVD), 72 hours, Cell Titer-Glo
Procedure, shortened: as §3

BaF3 (EGFR/A763insFQEA) = BaF3 (EGFR/A763insFQEA) (Homo sapiens, UniProt P00533, INS763FQEA, cells depend on it); assay: Test 14: EGFR exon 20 inserted A763insFQEA cell proliferation test; assay type: cell-based; conditions: 72 hours, Cell Titer-Glo, read-out: Test 14 IC50
Procedure, shortened: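 BaF3 cells dependent on EGFR A763insFQEA, plated at 3,000 cells/well and cultured overnight at 37 °C, 5% CO2, then exposed to compound serial dilutions in DMSO for 72 h. Viable cells quantified by CellTiter-Glo luminescence; values from curve fitting.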

BaF3 (EGFR/D770insNPG) = BaF3 (EGFR/D770insNPG) (Homo sapiens, UniProt P00533, cells depend on it, form not given); assay: Test 17: EGFR exon 20 inserted D770insNPG cell proliferation test; assay type: cell-based; conditions: 72 hours, Cell Titer-Glo, read-out: Test 17 IC50
Description: Test 17: EGFR Exon 20 Inserted D770insNPG Cell Proliferation Test
as §1

BaF3 (HER2/G776insVC) = BaF3 (HER2/G776insVC) (Homo sapiens, UniProt P04626, cells depend on it, form not given); assay: Test 23: HER2 exon 20 inserted G776insVC cell proliferation test; assay type: cell-based; conditions: 72 hours, Cell Titer-Glo, read-out: test 23 IC50
Description: Test 23: HER2 Exon 20 Inserted G776insVC Cell Proliferation Test
as §1

BaF3 (HER2/P780insGSP) = BaF3 (HER2/P780insGSP) (Homo sapiens, UniProt P04626, cells depend on it, form not given); assay: Test 22: HER2 exon 20 inserted P780insGSP cell proliferation test; assay type: cell-based; conditions: 72 hours, Cell Titer-Glo, read-out: test 22 IC50
Description: Test 22: HER2 Exon 20 Inserted P780insGSP Cell Proliferation Test
The engineered cell line BaF3 (HER2/P780insGSP) was constructed by the inventor himself (for the method of cell line construction, see Jingrui Jiang et al., Cancer Res. 2005 Oct. 1; 65 (19): 8964-74; Jacqulyne P. Robichaux et al., Nat Med. 2018 May; 24 (5): 638-646). BaF3 (HER2/P780insGSP) was cultured in RPMI 1640 medium containing 10% fetal bovine serum and 2 mM glutamine, and the cells were grown at 37° C. in a humidified incubator with 5% CO2.
as §1

T6 sequence (Q15303 26-1308): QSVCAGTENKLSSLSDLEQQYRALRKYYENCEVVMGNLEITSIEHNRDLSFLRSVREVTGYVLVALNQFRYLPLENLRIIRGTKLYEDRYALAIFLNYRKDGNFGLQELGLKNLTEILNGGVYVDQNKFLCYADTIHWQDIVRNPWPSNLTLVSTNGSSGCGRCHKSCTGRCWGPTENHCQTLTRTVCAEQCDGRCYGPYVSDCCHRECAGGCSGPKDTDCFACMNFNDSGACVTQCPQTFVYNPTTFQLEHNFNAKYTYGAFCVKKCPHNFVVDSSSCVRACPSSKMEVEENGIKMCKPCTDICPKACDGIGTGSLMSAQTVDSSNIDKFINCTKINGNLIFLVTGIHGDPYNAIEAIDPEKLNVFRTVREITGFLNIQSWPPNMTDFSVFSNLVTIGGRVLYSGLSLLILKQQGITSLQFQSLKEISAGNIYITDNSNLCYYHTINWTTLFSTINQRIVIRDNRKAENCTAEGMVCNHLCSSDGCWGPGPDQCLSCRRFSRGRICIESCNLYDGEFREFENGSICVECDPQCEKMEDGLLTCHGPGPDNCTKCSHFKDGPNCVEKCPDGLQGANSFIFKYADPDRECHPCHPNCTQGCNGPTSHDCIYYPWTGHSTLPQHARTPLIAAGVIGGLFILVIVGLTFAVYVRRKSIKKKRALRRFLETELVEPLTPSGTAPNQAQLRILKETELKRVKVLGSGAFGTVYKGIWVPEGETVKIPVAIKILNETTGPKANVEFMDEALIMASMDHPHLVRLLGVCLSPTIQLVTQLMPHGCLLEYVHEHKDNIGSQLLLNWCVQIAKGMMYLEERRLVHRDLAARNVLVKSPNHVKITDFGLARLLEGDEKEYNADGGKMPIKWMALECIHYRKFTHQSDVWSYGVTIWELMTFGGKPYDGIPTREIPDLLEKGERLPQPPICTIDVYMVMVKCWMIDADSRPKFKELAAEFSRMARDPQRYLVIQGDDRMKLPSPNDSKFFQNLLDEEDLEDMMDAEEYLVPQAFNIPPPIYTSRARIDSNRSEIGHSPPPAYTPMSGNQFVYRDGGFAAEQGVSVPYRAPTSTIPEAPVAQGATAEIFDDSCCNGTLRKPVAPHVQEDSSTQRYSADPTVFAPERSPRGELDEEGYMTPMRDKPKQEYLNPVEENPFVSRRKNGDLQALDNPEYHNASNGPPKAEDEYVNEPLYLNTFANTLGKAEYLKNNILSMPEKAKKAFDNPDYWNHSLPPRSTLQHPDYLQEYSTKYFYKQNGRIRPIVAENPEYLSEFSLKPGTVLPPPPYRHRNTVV
T1 sequence (P04626 with tags, fused parts or gaps DUP778-780): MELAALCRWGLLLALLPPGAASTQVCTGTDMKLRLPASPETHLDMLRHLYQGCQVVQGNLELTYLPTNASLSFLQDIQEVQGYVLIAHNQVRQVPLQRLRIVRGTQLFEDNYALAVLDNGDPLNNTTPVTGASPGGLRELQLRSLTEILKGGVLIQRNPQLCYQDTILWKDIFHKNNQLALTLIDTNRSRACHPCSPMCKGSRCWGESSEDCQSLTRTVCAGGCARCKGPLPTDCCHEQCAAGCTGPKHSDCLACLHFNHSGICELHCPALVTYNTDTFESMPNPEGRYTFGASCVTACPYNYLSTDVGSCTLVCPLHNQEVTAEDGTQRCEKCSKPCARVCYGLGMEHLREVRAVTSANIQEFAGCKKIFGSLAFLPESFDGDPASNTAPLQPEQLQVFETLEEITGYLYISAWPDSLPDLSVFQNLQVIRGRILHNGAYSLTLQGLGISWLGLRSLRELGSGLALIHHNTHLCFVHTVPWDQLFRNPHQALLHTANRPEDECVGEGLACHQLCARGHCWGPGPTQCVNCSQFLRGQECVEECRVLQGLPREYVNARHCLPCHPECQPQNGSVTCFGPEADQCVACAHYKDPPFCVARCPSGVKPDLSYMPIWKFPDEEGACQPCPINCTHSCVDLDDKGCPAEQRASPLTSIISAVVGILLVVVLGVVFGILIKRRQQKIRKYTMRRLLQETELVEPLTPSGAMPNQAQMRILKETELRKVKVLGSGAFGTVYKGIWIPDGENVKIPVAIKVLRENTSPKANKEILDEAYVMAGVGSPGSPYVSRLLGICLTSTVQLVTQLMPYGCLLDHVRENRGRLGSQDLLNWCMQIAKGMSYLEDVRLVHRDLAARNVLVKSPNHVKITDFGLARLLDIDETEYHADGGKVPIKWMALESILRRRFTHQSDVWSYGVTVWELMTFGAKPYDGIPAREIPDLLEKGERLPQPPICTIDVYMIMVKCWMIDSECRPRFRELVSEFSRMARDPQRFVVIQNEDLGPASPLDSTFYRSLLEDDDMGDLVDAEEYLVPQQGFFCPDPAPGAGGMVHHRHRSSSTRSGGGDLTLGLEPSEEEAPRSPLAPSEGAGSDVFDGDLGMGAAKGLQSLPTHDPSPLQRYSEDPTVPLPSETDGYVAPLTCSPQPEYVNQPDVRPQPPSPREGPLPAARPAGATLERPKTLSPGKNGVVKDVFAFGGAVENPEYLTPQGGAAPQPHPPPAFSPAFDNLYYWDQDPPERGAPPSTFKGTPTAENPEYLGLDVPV
BaF3 (HER2/G776insVC), sequence (P04626 with tags, fused parts or gaps DUP772-775): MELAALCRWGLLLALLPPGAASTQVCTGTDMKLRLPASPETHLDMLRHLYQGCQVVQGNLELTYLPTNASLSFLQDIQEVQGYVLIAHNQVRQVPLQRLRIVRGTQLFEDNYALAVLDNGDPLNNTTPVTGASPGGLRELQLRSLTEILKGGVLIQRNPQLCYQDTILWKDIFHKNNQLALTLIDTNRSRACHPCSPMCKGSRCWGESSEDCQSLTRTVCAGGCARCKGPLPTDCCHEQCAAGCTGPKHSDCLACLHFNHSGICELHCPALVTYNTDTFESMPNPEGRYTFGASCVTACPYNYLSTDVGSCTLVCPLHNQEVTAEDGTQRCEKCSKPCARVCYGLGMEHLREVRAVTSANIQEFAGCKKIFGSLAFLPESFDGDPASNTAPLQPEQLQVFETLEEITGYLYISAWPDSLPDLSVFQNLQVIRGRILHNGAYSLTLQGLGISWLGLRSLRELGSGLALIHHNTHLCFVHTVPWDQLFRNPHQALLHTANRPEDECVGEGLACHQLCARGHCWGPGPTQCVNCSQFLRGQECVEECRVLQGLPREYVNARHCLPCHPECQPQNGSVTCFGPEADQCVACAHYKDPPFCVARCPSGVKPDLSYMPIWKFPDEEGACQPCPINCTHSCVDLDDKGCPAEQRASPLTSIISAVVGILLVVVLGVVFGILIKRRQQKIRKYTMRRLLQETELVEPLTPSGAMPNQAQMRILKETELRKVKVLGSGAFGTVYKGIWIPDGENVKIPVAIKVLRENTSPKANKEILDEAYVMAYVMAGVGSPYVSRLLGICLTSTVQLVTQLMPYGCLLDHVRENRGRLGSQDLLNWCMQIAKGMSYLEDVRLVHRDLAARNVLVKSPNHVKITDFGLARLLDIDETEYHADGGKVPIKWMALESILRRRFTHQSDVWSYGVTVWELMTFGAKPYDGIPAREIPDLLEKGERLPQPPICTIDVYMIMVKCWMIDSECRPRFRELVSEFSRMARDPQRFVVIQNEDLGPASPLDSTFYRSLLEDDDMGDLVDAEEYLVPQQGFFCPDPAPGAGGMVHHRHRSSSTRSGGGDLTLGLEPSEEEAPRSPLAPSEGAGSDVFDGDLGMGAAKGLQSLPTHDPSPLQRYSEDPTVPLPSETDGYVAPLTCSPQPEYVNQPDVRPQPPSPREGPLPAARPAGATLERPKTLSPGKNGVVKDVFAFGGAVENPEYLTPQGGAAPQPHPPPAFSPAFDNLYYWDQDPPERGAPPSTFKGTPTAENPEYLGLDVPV
BaF3 (HER2/P780insGSP), sequence (P04626 with tags, fused parts or gaps DELINS776-776VC): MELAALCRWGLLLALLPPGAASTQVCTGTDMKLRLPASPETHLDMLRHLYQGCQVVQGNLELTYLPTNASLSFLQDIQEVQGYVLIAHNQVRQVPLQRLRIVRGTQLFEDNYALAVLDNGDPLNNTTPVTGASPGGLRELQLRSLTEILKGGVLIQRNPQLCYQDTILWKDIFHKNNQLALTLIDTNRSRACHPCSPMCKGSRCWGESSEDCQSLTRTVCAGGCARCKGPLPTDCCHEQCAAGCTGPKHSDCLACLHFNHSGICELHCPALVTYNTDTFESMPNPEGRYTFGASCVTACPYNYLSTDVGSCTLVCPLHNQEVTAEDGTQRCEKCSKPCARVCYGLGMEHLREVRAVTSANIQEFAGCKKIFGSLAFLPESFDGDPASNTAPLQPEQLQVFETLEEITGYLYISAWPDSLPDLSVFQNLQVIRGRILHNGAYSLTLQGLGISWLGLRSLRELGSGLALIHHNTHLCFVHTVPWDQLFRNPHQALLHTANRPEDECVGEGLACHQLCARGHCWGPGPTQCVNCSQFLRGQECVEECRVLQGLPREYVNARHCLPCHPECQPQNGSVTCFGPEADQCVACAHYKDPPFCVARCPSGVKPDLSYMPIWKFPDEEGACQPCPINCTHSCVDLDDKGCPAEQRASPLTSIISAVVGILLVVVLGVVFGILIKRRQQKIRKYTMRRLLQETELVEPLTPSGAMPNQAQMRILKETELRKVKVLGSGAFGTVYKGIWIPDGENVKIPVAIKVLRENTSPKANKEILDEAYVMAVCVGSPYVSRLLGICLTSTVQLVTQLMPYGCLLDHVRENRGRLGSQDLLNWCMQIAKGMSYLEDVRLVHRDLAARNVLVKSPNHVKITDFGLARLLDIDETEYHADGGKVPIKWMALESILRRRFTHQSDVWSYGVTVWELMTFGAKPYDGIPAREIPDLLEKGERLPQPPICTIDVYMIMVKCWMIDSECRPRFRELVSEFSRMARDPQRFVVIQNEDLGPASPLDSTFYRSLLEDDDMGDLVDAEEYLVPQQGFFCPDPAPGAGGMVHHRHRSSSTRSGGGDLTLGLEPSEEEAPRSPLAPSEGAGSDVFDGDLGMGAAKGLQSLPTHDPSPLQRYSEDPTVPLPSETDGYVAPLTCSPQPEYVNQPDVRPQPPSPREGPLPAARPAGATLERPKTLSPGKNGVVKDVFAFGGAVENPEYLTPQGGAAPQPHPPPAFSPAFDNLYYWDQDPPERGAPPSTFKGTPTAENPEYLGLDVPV

GI50 (BaF3 (EGFR/V774insHV)): 7.59 nM | GI50 (BaF3 (HER2/A775insYVMA)): 7.67 nM | GI50 (BaF3 (EGFR/N771insH) [1]): 8.67 nM | GI50 (BaF3 (EGFR/S768I) [3]): 8.63 nM | IC50 value lower than that of Osimertinib (AZD9291) (HER4 kinase; HER4 kinase): about 1 fold | IC50 (HER4 kinase; HER4 kinase inhibition test, read-out: Test 12 HER4 IC50): 29 nM | GI50 (BaF3 (EGFR/V769insASV)): 24.8 nM | GI50 (BaF3 (EGFR/L861Q)): 21.6 nM | GI50 (BaF3 (EGFR/D770insSVD) [6]): 35.8 nM | GI50 (BaF3 (EGFR/A763insFQEA)): 12.8 nM | GI50 (BaF3 (EGFR/D770insNPG)): 4.69 nM | GI50 (BaF3 (HER2/G776insVC)): 12 nM | GI50 (BaF3 (HER2/P780insGSP)): 1.64 nM
Structure (SMILES): C=CC(=O)Nc1cc(Nc2ncnc(-c3cn(C)c4ccccc34)n2)c(OC)cc1N(C)CCN(C)C [Compound 16]
cell activity compared with Osimertinib (AZD9291) against EGFR exon 20 insertion mutations (BaF3 (EGFR/N771insH) [2]): significantly superior cell activity over Osimertinib (AZD9291) | activity compared with Osimertinib (AZD9291) against EGFR S768I and EGFR L861Q mutations (BaF3 (EGFR/S768I) [4]): superior activity over Osimertinib (AZD9291) | cell activity compared with Osimertinib (AZD9291) against EGFR exon 20 insertion mutations (BaF3 (EGFR/D770insSVD) [5]): significant superior cell activity over Osimertinib (AZD9291)
